Results as given in US20260224563A1, “CRYSTALLINE FORMS OF 6-(3-((5-CHLORO-2-METHOXYPYRIDINE)-3-SULFONAMIDO)-2,6-DIFLUOROPHENYL)-N-METHYLIMIDAZO[1,5-A]PYRAZINE-1-CARBOXAMIDE AND METHODS FOR USING THE SAME” (HIBERCELL, INC., priority 2023, published 2026).
Read-outs that look alike come from different tables or passages of the source.

Experiment: Multicenter, open-label, Phase 1a/b study of HC-7366 in subjects with advanced solid tumors (safety, PK)
Type: in vivo
Conditions: for AUC(0-t) / Vd/F / Tmax / Cmax / half-life / % AUCextrap / CL/F / DAUC0-24 / DAUC0-last / DAUC0-∞ / DCmax / tlast / LR / AUC / AUC(0-inf): human; for AUC(0-t) / Vd/F / Tmax / Cmax / half-life / AUC / AUC(0-inf): plasma; for AUC(0-t) / Vd/F / Tmax / Cmax / half-life: po; for Vd/F: read-out: Vz/F; for LR: linearity ratio; for AUC: read-out: AUC0-τ
Source text: Identify the maximum tolerated dose (MTD) and/or recommended Phase 2 dose (RP2D) of HC-7366, and evaluate the safety, tolerability, and dose-limiting toxicities (DLTs) of HC-7366 using Form III of the potassium salt of the compound of formula (I) (see Example 6, also referred to within this example as HC-7366-K), in subjects with advanced solid tumors, including: • a. occurrence of DLTs • b. incidence and severity of treatment-emergent adverse events (TEAEs) and treatment related TEAEs according to National Cancer Institute Common Terminology Criteria for Adverse Events (NCI CTCAE) v 5.0 • c. incidence of TEAEs leading to premature discontinuation • d. incidence of laboratory abnormalities, based on NCI CTCAE grades of hematology, serum chemistry, and urinalysis test results • e. incidence of abnormalities observed in 12 lead ECG parameters • f. incidence of abnormalities observed in vital signs measurements
Determine plasma concentration and pharmacokinetic (PK) parameters following treatment with HC-7366 using Form III of the potassium salt of the compound of formula (I) (see Example 6, also referred to within this example as HC-7366-K).
Preliminarily assess the potential antitumor activity of HC-7366 in terms of response rate, disease stabilization, and survival outcomes by assessing: • a. Overall response rate (ORR) to HC-7366 using response evaluation criteria in solid tumors (iRECIST) • b. Duration of response (DOR) to HC-7366 using iRECIST • c. Time to treatment failure (TTF) • d. Progression free survival (PFS) using iRECIST • e. Overall survival (OS)
This is a first in human, multicenter, open label, Phase 1a and 1b dose-escalation and dose-expansion study to establish the maximum tolerated dose, recommended Phase 2 dose, and evaluate the safety and tolerability of QD oral dosing of HC 7366 in a dose escalating fashion in subjects with advanced solid tumors. Up to 40 subjects were enrolled into the Phase 1a dose-escalation part of the study. The study was conducted in the United States at approximately 7 to 10 sites.
Every effort was made to ensure approximately 50% of all subjects enrolled into Phase 1a of this study are subjects with the tumors of special interest including squamous cell carcinoma of the head and neck, colorectal cancer, non-small cell lung cancer, and transitional cell carcinoma of the bladder. […] All subjects in Phase 1b enrolled with clear cell renal cell carcinoma. The Phase 1a study followed a traditional 3+3 design. The starting dose level was 10 mg QD, escalating to 20, 40, 75, 125, and 150 mg QD as safety allows. All doses were administered in the fasting state with water at least 1 hour before food or at least 2 hours after food.
The Phase 1b dose-expansion was at a single dose level of 75 mg based on the safety, tolerability, PK/PD results from Phase 1a to obtain additional safety and preliminary efficacy information. Up to 30 subjects were enrolled in the Phase 1b portion of the study at the 75 mg dose. Replacement patients were enrolled as necessary. Subjects were dosed until unacceptable toxicity, disease progression per immune-related Response Evaluation Criteria in Solid Tumors, discontinuation of treatment for other protocol allowed reason (eg, subject refusal), any other administrative reasons, or after 2 years of treatment, whichever occurs first.
For scheduling purposes, dosing in Phase 1a and 1b occurred in 3 week cycles and computed tomography scans were conducted once every 6 weeks from Cycle 1/Day 1, with the first postbaseline scan after 6 weeks of dosing (precycle 3) until confirmed disease progression, death, start of new anticancer therapy, withdrawal of consent, or end of study, whichever occurs first.
Subjects of Phase 1a and 1b spent Cycle 1/Day 1 (C1D1) in the clinic followed by an optional overnight stay for safety monitoring and PK sampling. Subjects were hospitalized (optional) for administration of the first 2 doses: C1D1 and Cycle 1/Day 2 (C1D2). […]

[1] = 75 mg, multiple once daily oral 75 mg (N = 7), Cycle 1 Day 21, geometric mean
[2] = 75 mg, single oral dose 75 mg (N = 10), Cycle 1 Day 1, geometric mean
[3] = 125 mg, multiple once daily oral 125 mg (N = 1), Cycle 1 Day 21
[4] = 125 mg, single oral dose 125 mg (N = 6), Cycle 1 Day 1, geometric mean
[5] = single oral dose 10 mg (N = 3), Cycle 1 Day 1, geometric mean
[6] = single oral dose 20 mg (N = 3), Cycle 1 Day 1, geometric mean
[7] = single oral dose 40 mg (N = 11), Cycle 1 Day 1, geometric mean
[8] = single oral dose 75 mg (N = 10), Cycle 1 Day 1, geometric mean
[9] = single oral dose 125 mg (N = 6), Cycle 1 Day 1, geometric mean
[10] = multiple once daily oral 10 mg (N = 3), Cycle 1 Day 21, geometric mean
[11] = multiple once daily oral 20 mg (N = 3), Cycle 1 Day 21, geometric mean
[12] = multiple once daily oral 40 mg (N = 8), Cycle 1 Day 21, geometric mean
[13] = multiple once daily oral 75 mg (N = 7), Cycle 1 Day 21, geometric mean
[14] = multiple once daily oral 125 mg (N = 1), Cycle 1 Day 21

## CNC(=O)c1ncn2cc(-c3c(F)ccc(NS(=O)(=O)c4cc(Cl)cnc4OC)c3F)ncc12 [HC-7366, 6-(3-((5-chloro-2-methoxypyridine)-3-sulfonamido)-2,6-difluorophenyl)-N-methylimidazo[1,5-a]pyrazine-1-carboxamide]
40 mg, single oral dose 40 mg (N = 11), Cycle 1 Day 1, geometric mean, read-out: AUC0-24
  AUC(0-t): 52900 ng·h/mL
40 mg, single oral dose 40 mg (N = 11), Cycle 1 Day 1, geometric mean, read-out: AUC0-last
  AUC(0-t): 52900 ng·h/mL
40 mg, single oral dose 40 mg (N = 11), Cycle 1 Day 1, geometric mean
  Vd/F: 10.5 L
40 mg, single oral dose 40 mg (N = 11), Cycle 1 Day 1, median
  Tmax: 2 h
[1]
  Cmax: 14300 ng/mL
  half-life: 17.8 h
  Vd/F: 9.51 L
75 mg, multiple once daily oral 75 mg (N = 7), Cycle 1 Day 21, geometric mean, read-out: AUC0-last
  AUC(0-t): 166000 ng·h/mL
75 mg, multiple once daily oral 75 mg (N = 7), Cycle 1 Day 21, median
  Tmax: 2 h
[2]
  Cmax: 10200 ng/mL
  half-life: 15.2 h
  Vd/F: 11.2 L
75 mg, single oral dose 75 mg (N = 10), Cycle 1 Day 1, geometric mean, read-out: AUC0-24
  AUC(0-t): 100000 ng·h/mL
75 mg, single oral dose 75 mg (N = 10), Cycle 1 Day 1, geometric mean, read-out: AUC0-last
  AUC(0-t): 100000 ng·h/mL
75 mg, single oral dose 75 mg (N = 10), Cycle 1 Day 1, median
  Tmax: 2 h
[3]
  Cmax: 38200 ng/mL
  half-life: 16.5 h
  Vd/F: 7.4 L
125 mg, multiple once daily oral 125 mg (N = 1), Cycle 1 Day 21, read-out: AUC0-last
  AUC(0-t): 260000 ng·h/mL
[4]
  Cmax: 18800 ng/mL
  half-life: 14 h
  Vd/F: 7.85 L
125 mg, single oral dose 125 mg (N = 6), Cycle 1 Day 1, geometric mean, read-out: AUC0-24
  AUC(0-t): 216000 ng·h/mL
125 mg, single oral dose 125 mg (N = 6), Cycle 1 Day 1, geometric mean, read-out: AUC0-last
  AUC(0-t): 204000 ng·h/mL
125 mg, single oral dose 125 mg (N = 6), Cycle 1 Day 1, median
  Tmax: 2 h
[5]
  % AUCextrap: 22.7%
  CL/F: 0.508 L/h
  DAUC0-24: 1510 ng·h/mL/mg
  DAUC0-last: 1510 ng·h/mL/mg
  DAUC0-∞: 1970 ng·h/mL/mg
  DCmax: 145 ng/mL/mg
  AUC(0-inf): 19700 ng·h/mL
Single oral dose 10 mg (N = 3), Cycle 1 Day 1, median
  tlast: 24.00 h
[6]
  % AUCextrap: 17.9%
  CL/F: 0.544 L/h
  DAUC0-24: 1440 ng·h/mL/mg
  DAUC0-last: 1440 ng·h/mL/mg
  DAUC0-∞: 1840 ng·h/mL/mg
  DCmax: 116 ng/mL/mg
  AUC(0-inf): 36800 ng·h/mL
Single oral dose 20 mg (N = 3), Cycle 1 Day 1, median
  tlast: 24.00 h
[7]
  % AUCextrap: 31.0%
  CL/F: 0.491 L/h
  DAUC0-24: 1320 ng·h/mL/mg
  DAUC0-last: 1320 ng·h/mL/mg
  DAUC0-∞: 2040 ng·h/mL/mg
  DCmax: 113 ng/mL/mg
  AUC(0-inf): 81500 ng·h/mL
Single oral dose 40 mg (N = 11), Cycle 1 Day 1, median
  tlast: 24.00 h
[8]
  % AUCextrap: 30.2%
  CL/F: 0.508 L/h
  DAUC0-24: 1340 ng·h/mL/mg
  DAUC0-last: 1340 ng·h/mL/mg
  DAUC0-∞: 1970 ng·h/mL/mg
  DCmax: 136 ng/mL/mg
  AUC(0-inf): 148000 ng·h/mL
Single oral dose 75 mg (N = 10), Cycle 1 Day 1, median
  tlast: 24.00 h
[9]
  % AUCextrap: 33.6%
  CL/F: 0.390 L/h
  DAUC0-24: 1730 ng·h/mL/mg
  DAUC0-last: 1630 ng·h/mL/mg
  DAUC0-∞: 2570 ng·h/mL/mg
  DCmax: 150 ng/mL/mg
  AUC(0-inf): 321000 ng·h/mL
Single oral dose 125 mg (N = 6), Cycle 1 Day 1, median
  tlast: 24.00 h
[10]
  LR: 1.11
  AUC: 21900 ng·h/mL
[11]
  LR: 1.14
  AUC: 41900 ng·h/mL
[12]
  LR: 1.11
  AUC: 99300 ng·h/mL
[13]
  LR: 1.22
  AUC: 187000 ng·h/mL
[14]
  LR: 0.759
  AUC: 401000 ng·h/mL
Of 34 treated subjects, 10 to 125 mg cohorts
  subjects who discontinued treatment due to an AE: 5 subjects
